According to PubChem BioAssay AID1259246 (Broad Institute, 2017):
Several values for one entry are separate records, joined by “and”; a condition that tells them apart may be missing. Equal values may be shown once. Records with an inconclusive call do not appear. Activity calls are given as the source filed them.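 How the source made its calls: active means valid dose-response fit whose half-maximal growth-inhibiting concentration is at or below a set limit above the top tested dose; inconclusive means flat fit with effect between 30 and 70%, or poor fit; inactive means half-maximal concentration above a set limit.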

tested on: not listed separately; test: antibacterial activity against Clostridioides difficile – 10-point retest, dose response (AID 1259246); details: Clostridioides difficile clinical isolate growth, OD600, 24 h; at 120 µM (top of the series)

Row | SMILES | activity change, negative = inhibition
1 | CNC[C@H]1Oc2cc(C#CCC(C)C)ccc2S(=O)(=O)N([C@H](C)CO)C[C@@H]1C | 19.7% (inactive)
2 | C/C=C/c1ccc2c(c1)O[C@H](CN(C)CC1CCOCC1)[C@H](C)CN([C@H](C)CO)S2(=O)=O | -5.69% (inactive)
3 | C[C@@H]1CN([C@H](C)CO)C(=O)Cc2cc(NC(=O)C3CC3)ccc2O[C@@H]1CN(C)Cc1ccc(Oc2ccccc2)cc1 | 22.6% (inactive)
4 | C[C@@H]1CCCCO[C@H](CN(C)S(=O)(=O)c2ccc(F)cc2)[C@H](C)CN([C@@H](C)CO)C(=O)c2cc(NC(=O)Nc3cccc4ccccc34)ccc2O1 | 22.9% (inactive)
5 | C[C@H](CO)N1C[C@H](C)[C@@H](CN(C)C(=O)NC2CCCCC2)Oc2c(NC(=O)Nc3ccc(F)cc3)cccc2C1=O | 9.73% (inactive)

same assay, conditions: Clostridioides difficile clinical isolate growth, OD600, 24 h; at 135 µM (top of the series)

Row | SMILES | activity change, negative = inhibition
6 | C[C@@H]1CN([C@H](C)CO)C(=O)Cc2cc(NC(=O)CCC(F)(F)F)ccc2O[C@H]1CN(C)Cc1ccc(Oc2ccccc2)cc1 | 25.5% (inactive)
7 | C[C@H]1CN([C@@H](C)CO)C(=O)Cc2cc(NC(=O)C3CC3)ccc2O[C@@H]1CN(C)Cc1ccc(Oc2ccccc2)cc1 | 17.9% (inactive)
8 | C[C@@H]1CCCCO[C@@H](CN(C)S(=O)(=O)c2ccc(F)cc2)[C@@H](C)CN([C@H](C)CO)C(=O)c2cc(NC(=O)Nc3cccc4ccccc34)ccc2O1 | 14.6% (inactive)

tested on: Clostridioides difficile clinical isolate growth, OD600, 24 h; test: as above; details: not given

Row | SMILES | IC50
9 | COc1ccc(S(=O)(=O)Nc2cccc3c2O[C@H](CN(C)Cc2ccc(Oc4ccccc4)cc2)[C@H](C)CN([C@@H](C)CO)C3=O)cc1 | 9.4 µM
10 | CO[C@@H](CN(C)C(=O)C1CCOCC1)[C@H](C)CN(C(=O)Nc1ccc(C(F)(F)F)cc1)[C@@H](C)CO | 23.4 µM
11 | C[C@@H]1CN([C@@H](C)CO)C(=O)c2cccc(NC(=O)Nc3ccc(C(F)(F)F)cc3)c2O[C@@H]1CN(C)Cc1ccc(-c2ccccc2)cc1 | 0.3 µM and 1.52 µM and 0.654 µM
12 | C[C@H](CO)N1C[C@H](C)[C@H](CN(C)C(=O)Nc2ccccc2)Oc2c(NC(=O)Nc3ccc(C(F)(F)F)cc3)cccc2C1=O | 19.8 µM
13 | CO[C@@H]1CN(C)C(=O)c2ccc(NC(=O)Nc3cc(Cl)cc(Cl)c3)cc2OC[C@H](C)NC[C@H]1C | 153 µM and 36.2 µM
14 | COc1ccc(S(=O)(=O)Nc2ccc3c(c2)C(=O)N([C@@H](C)CO)C[C@H](C)[C@@H](CN(C)Cc2ccc4c(c2)OCO4)OCCCC[C@@H](C)O3)cc1 | 12 µM
15 | CO[C@H](CN(C)C(=O)C1CCOCC1)[C@@H](C)CN(C(=O)Nc1ccc(C(F)(F)F)cc1)[C@H](C)CO | 14.5 µM
16 | CO[C@H]1CN(C)C(=O)c2cc(NC(=O)Nc3ccc(Cl)c(Cl)c3)ccc2OC[C@@H](C)NC[C@H]1C | 14.9 µM and 13.1 µM
17 | CCS(=O)(=O)N1[C@H](CO)[C@H](c2ccc(C#CCC3CCCC3)cc2)[C@@H]1C#N | 80.2 µM
18 | Cc1noc(C)c1NC(=O)Nc1cccc2c1O[C@H](CN(C)Cc1ccc(Oc3ccccc3)cc1)[C@H](C)CN([C@@H](C)CO)C2=O | 57.4 µM and 36.1 µM
19 | C[C@H]1CN([C@@H](C)CO)S(=O)(=O)c2ccc(C#Cc3ccc(F)cc3)cc2O[C@@H]1CN(C)C | 69.9 µM
20 | COc1ccc(NC(=O)Nc2cccc3c2O[C@H](CN(C)Cc2ccc(Oc4ccccc4)cc2)[C@H](C)CN([C@@H](C)CO)C3=O)cc1 | 2.47 µM and 0.531 µM and 0.465 µM
21 | C[C@@H]1CN([C@@H](C)CO)C(=O)c2cc(NC(=O)Nc3ccc(C(F)(F)F)cc3)ccc2O[C@@H](C)CCCCO[C@H]1CN(C)CC1CCCCC1 | 10.9 µM and 2.15 µM
22 | CO[C@H]1CN(C)C(=O)c2cc(NC(=O)Nc3ccc(Cl)c(Cl)c3)ccc2OC[C@H](C)NC[C@@H]1C | 15.1 µM and 73 µM
23 | Cc1ccc(S(=O)(=O)Nc2ccc3c(c2)C(=O)N([C@@H](C)CO)C[C@H](C)[C@@H](CN(C)Cc2ccc4c(c2)OCO4)OCCCC[C@@H](C)O3)cc1 | 17.6 µM
24 | CNC[C@@H]1Oc2cc(C#CCC3CCCC3)ccc2S(=O)(=O)N([C@H](C)CO)C[C@H]1C | 68.6 µM
25 | N#C[C@H]1[C@@H](c2ccc(C#Cc3ccccc3F)cc2)[C@@H](CO)N1C(=O)C1CCCCC1 | 157 µM
26 | CC(C)CC#Cc1ccc2c(c1)O[C@H](CN(C)Cc1ccc(C(=O)O)cc1)[C@@H](C)CN([C@H](C)CO)S2(=O)=O | 42.9 µM
27 | CO[C@@H]1CN(C)C(=O)c2cc(NC(=O)Nc3ccc(Cl)c(Cl)c3)ccc2OC[C@H](C)NC[C@H]1C | 16 µM and 11.3 µM
28 | C[C@@H]1CN([C@@H](C)CO)C(=O)c2cccc(NC(=O)Nc3ccc(F)cc3)c2O[C@@H]1CN(C)Cc1ccc(-c2ccccc2)cc1 | 4.56 µM and 1.71 µM and 1.93 µM

Row | SMILES | IC50
29 | C[C@@H]1CN([C@H](C)CO)C(=O)Cc2cc(NC(=O)CCCN(C)C)ccc2O[C@H]1CN(C)Cc1ccc(-c2ccccc2)cc1 | 74.7 µM and 48 µM
30 | CO[C@H]1CN(C)C(=O)c2cc(NC(=O)Nc3ccc(Cl)c(Cl)c3)ccc2OC[C@H](C)NC[C@H]1C | 15.7 µM and 26.5 µM
31 | Cc1ccc(-c2ccc3c(c2)O[C@@H](CN(C)Cc2ccc(C(=O)O)cc2)[C@H](C)CN([C@H](C)CO)S3(=O)=O)cc1 | 97 µM
32 | CO[C@@H](CN(C)C(=O)C1CCOCC1)[C@@H](C)CN(C(=O)Nc1ccc(C(F)(F)F)cc1)[C@@H](C)CO | 38.8 µM
33 | COc1ccc(CN(C)C[C@H]2OCCCC[C@H](C)Oc3ccc(NC(=O)Nc4ccc(C(F)(F)F)cc4)cc3C(=O)N([C@@H](C)CO)C[C@@H]2C)cc1 | 67.7 µM
34 | C[C@@H]1CN([C@@H](C)CO)C(=O)c2cccc(NC(=O)Nc3ccc4c(c3)OCO4)c2O[C@@H]1CN(C)Cc1ccc(Oc2ccccc2)cc1 | < 0.26 µM
35 | C[C@@H]1CN([C@H](C)CO)S(=O)(=O)c2ccc(/C=C/c3ccccc3)cc2O[C@H]1CN(C)Cc1ccc(C(=O)O)cc1 | 6.11 µM
36 | C[C@@H]1CN([C@@H](C)CO)C(=O)c2cccc(NC(=O)Nc3ccc(C(F)(F)F)cc3)c2O[C@@H]1CN(C)C(=O)Nc1ccc(F)cc1 | 13.9 µM and > 240 µM (inactive)
37 | C[C@@H]1CN([C@@H](C)CO)C(=O)Cc2cc(NC(=O)CCCN(C)C)ccc2O[C@H]1CN(C)Cc1ccc(-c2ccccc2)cc1 | 31.4 µM
38 | O=C(NCC[C@H]1CC[C@H](NC(=O)C2CC2)[C@@H](CO)O1)Nc1ccc(C(F)(F)F)cc1 | 15.4 µM
39 | C[C@@H]1CN([C@@H](C)CO)C(=O)Cc2cc(NC(=O)CCCN(C)C)ccc2O[C@H]1CN(C)Cc1ccc(Oc2ccccc2)cc1 | 71.1 µM
40 | CO[C@H](CN(C)C(=O)C1CCOCC1)[C@H](C)CN(C(=O)Nc1ccc(C(F)(F)F)cc1)[C@H](C)CO | 26.2 µM
41 | CO[C@@H]1CN(C)C(=O)c2cc(NC(=O)Nc3ccc(Cl)c(Cl)c3)ccc2OC[C@H](C)NC[C@@H]1C | 17.8 µM and 12.5 µM
42 | COc1ccc(S(=O)(=O)N(C)C[C@H]2Oc3ccc(NC(=O)Nc4ccc(C(F)(F)F)cc4)cc3C(=O)N([C@@H](C)CO)C[C@@H]2C)cc1 | 51.2 µM
43 | O=C(C[C@H]1CC[C@@H]2[C@H](COC[C@@H](O)CN2S(=O)(=O)c2ccccc2)O1)NCC1CCCCC1 | 52.4 µM
44 | C[C@@H]1CN([C@@H](C)CO)C(=O)c2cccc(NC(=O)Nc3ccc(C(F)(F)F)cc3)c2O[C@@H]1CN(C)Cc1ccccc1 | 2.69 µM
45 | COc1ccc(CN(C)C[C@@H]2OCCCC[C@H](C)Oc3ccc(NC(=O)Nc4cccc5ccccc45)cc3C(=O)N([C@H](C)CO)C[C@H]2C)cc1 | 87.9 µM
46 | C[C@@H]1CCCCO[C@H](CN(C)Cc2ccc3c(c2)OCO3)[C@@H](C)CN([C@@H](C)CO)C(=O)c2cc(NS(=O)(=O)c3cccs3)ccc2O1 | 33.5 µM
47 | CO[C@H]1CN(C)C(=O)c2ccc(NC(=O)Nc3ccc(Cl)c(Cl)c3)cc2OC[C@H](C)NC[C@H]1C | 14.9 µM and 8.28 µM
48 | Cc1ccc(F)cc1S(=O)(=O)N[C@@H]1CCN(Cc2ccc(CC(C)C)cc2)C1 | 14.3 µM

Row | SMILES | IC50
49 | CNC[C@@H]1Oc2ccc(NC(=O)Nc3ccccc3)cc2CC(=O)N([C@@H](C)CO)C[C@H]1C | > 270 µM (inactive)
50 | CO[C@H]1CN(C)C(=O)c2cc(NC(=O)Nc3ccc(Cl)c(Cl)c3)ccc2OC[C@@H](C)NC[C@@H]1C | 14.5 µM and 17.6 µM
51 | O=C(C[C@@H]1CC[C@H]2[C@@H](COC[C@H](O)CN2S(=O)(=O)c2ccccc2)O1)NCC1CCCCC1 | 35.1 µM
52 | C[C@@H]1CN([C@@H](C)CO)C(=O)c2cccc(NC(=O)Nc3ccc(F)cc3)c2O[C@@H]1CN(C)Cc1ccc(C(F)(F)F)cc1 | 13 µM and 3.27 µM and 6.22 µM
53 | C[C@H](CO)N1C[C@H](C)[C@@H](CN(C)Cc2ccc(-c3ccccc3)cc2)Oc2ccc(NC(=O)CCCN(C)C)cc2CC1=O | 68.7 µM
54 | C[C@H]1CN([C@@H](C)CO)S(=O)(=O)c2ccc(C#CCC3CCCC3)cc2O[C@@H]1CN(C)C | 72.5 µM
55 | C[C@@H]1CN([C@H](C)CO)C(=O)c2cc(NC(=O)Nc3cccc4ccccc34)ccc2O[C@@H](C)CCCCO[C@H]1CN(C)Cc1ccccc1 | 68.4 µM
56 | COc1ccc(C#Cc2cnc3c(c2)C(=O)N([C@@H](C)CO)C[C@@H](C)[C@H](CN(C)CC2CCCC2)O3)cc1 | 188 µM
57 | C[C@H](CO)N1C[C@H](C)[C@H](CN(C)C(=O)NC2CCCCC2)Oc2ncc(C#Cc3ccc(F)cc3)cc2C1=O | 37.7 µM
58 | CO[C@@H](CN(C)C(=O)C1CC1)[C@H](C)CN(C(=O)Nc1ccc(C(F)(F)F)cc1)[C@@H](C)CO | 6.58 µM
59 | O=C(NCC[C@@H]1CC[C@H](NC(=O)Nc2cc(F)ccc2F)[C@H](CO)O1)Nc1ccc(Cl)cc1 | > 240 µM (inactive)
60 | CO[C@H](CN(C)S(=O)(=O)c1cn(C)cn1)[C@@H](C)CN(C(=O)Nc1ccc(C(F)(F)F)cc1)[C@H](C)CO | 12.6 µM
61 | CO[C@H]1CN(C)C(=O)c2cc(NC(=O)Nc3cc(Cl)cc(Cl)c3)ccc2OC[C@H](C)NC[C@H]1C | 41.2 µM and 8.16 µM
62 | C[C@H]1CN([C@@H](C)CO)S(=O)(=O)c2ccc(/C=C/c3ccccc3)cc2O[C@@H]1CN(C)Cc1ccc(C(=O)O)cc1 | 62.8 µM
63 | C[C@@H]1CN([C@H](C)CO)S(=O)(=O)c2ccc(C#CCC3CCCC3)cc2O[C@H]1CN(C)Cc1ccc(C(=O)O)cc1 | 76.2 µM
64 | CNC[C@H]1Oc2c(NC(=O)Nc3ccc(C(F)(F)F)cc3)cccc2C(=O)N([C@@H](C)CO)C[C@H]1C | 36.7 µM
65 | C[C@@H]1CCCCO[C@@H](CN(C)CC2CCCCC2)[C@@H](C)CN([C@@H](C)CO)C(=O)c2cc(NC(=O)Nc3ccc(C(F)(F)F)cc3)ccc2O1 | 50.2 µM and 17.8 µM
66 | C[C@@H]1CN([C@@H](C)CO)C(=O)c2cccc(NC(=O)Nc3ccccc3)c2O[C@@H]1CN(C)Cc1ccc(Oc2ccccc2)cc1 | 1.2 µM and 0.402 µM and < 0.235 µM
67 | C[C@@H]1CN([C@@H](C)CO)S(=O)(=O)c2ccc(/C=C/c3ccccc3)cc2O[C@@H]1CN(C)Cc1ccc(C(=O)O)cc1 | > 240 µM (inactive)
